Laboratory results reported in PubChem BioAssay (NCI).
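Compound exposure: 48 hours, 5 concentrations, 96-well plates. GI50: concentration for 50% inhibition of growth.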

Test system: P388 leukemia
Assay: NCI tumour cell line growth inhibition, 48 h

Cc1c[nH]c2c1C13CC1CN(C(=O)c1cc4cc(NC(=O)c5cc6ccccc6o5)ccc4[nH]1)C3=CC2=O (stereo unspecified)
GI50: > 1.17 ng/mL
